{
  "source": "patent US20230042961A1",
  "about": "“FUNGICIDAL COMPOUNDS AND MIXTURES FOR FUNGAL CONTROL IN CEREALS” (Dow AgroSciences LLC, priority 2017, published 2023)",
  "key": {"[1]": {"test_system": "Puccinia recondita (PUCCRT)", "assay": "Field assessment of brown rust of wheat (PUCCRT), 2 field trials", "type": "in vivo, Puccinia recondita on wheat (TRZAW)", "details": "relative AUDPC, average of 2 field trials, with Agnique BP-420", "from_the_text": "(§1) Treatments consisted of the compound of Formula I and the compound of Formula II either using individually or as a two-way mixture with the compound of Formula I. The compound of Formula I was applied with Agnique BP-420 (50% w/w at 0.3% v/v) at 75 and 150 g ai/ha and the compound of Formula II was applied with Agnique BP-420 (50% w/w at 0.3% v/v) at 20, 40, and 60 g ai/ha. Commercial standards used in the studies were Fluxapyroxad (Imtrex), applied at 100 g ai/ha, and Metconazole+Fluxapyroxad (Librax), applied at 161 g ai/ha.\nField Assessment of Puccinia recondita (PUCCRT) in Wheat:\nFungicidal treatment containing the compound of Formula I and the compound of Formula II, either individually or as a two mixture, were assessed against brown rust of wheat (PUCCRT) in two separate field trials. In the first trial, fungicidal treatments were applied at B37-39 (protectant, approximately 0% infection at application) growth stage of wheat (TRZAW, MV Vanek variety) under natural infection of brown rust. The treatment was part of an experimental trial designed as a randomized complete block with four replications and a plot of approximately 2×3 m. Fungicidal treatments were applied at a water volume of 200 L/ha, using a backpack plot sprayer with a TEEJET QJ90-2XTT110 015 Nozzle.\nIn the second trial, fungicidal treatments containing the compound of Formula I and the compound of Formula II, either individually or as a two way mixture, were applied at B33 (curative, approximately 6.6% infection at application) growth stage of wheat (TRZAW, Miradoux variety) under natural infection of brown rust. The treatments were part of an experimental trial designed as a randomized complete block with four replications and a plot of approximately 2×3 m. Fungicidal treatments were applied at a water volume of 200 L/ha, using a backpack plot sprayer with a HARDI MD110-02 Nozzle.\n(§2) Disease severity (percentage of visual diseased foliage on whole plot or leaves) in both field trials was assessed at 5 weeks after application and was recorded following EPPO PP1/26 guideline prescriptions. Area under the disease progress curve (AUDPC) was calculated for each plot in both trials using the sets of recorded severity data. Relative AUDPC (% control based on AUDPC) was calculated as percent of the nontreated control. Final results for the control of brown rust of wheat by the compound of Formula I, the compound of Formula II, and mixtures are reported as an average of the relative AUDPC calculated over both field trials. Statistical analysis was done according to ANOVA and Tukey's test (p=0.10)."}, "[2]": {"test_system": "Puccinia striiformis (PUCCST)", "assay": "Field assessment of yellow rust of wheat (PUCCST), 2 field trials", "type": "in vivo, Puccinia striiformis on wheat (TRZAW)", "details": "relative AUDPC, average of 2 field trials, with Agnique BP-420", "from_the_text": "as §1\nField Assessment of Puccinia striiformis (PUCCST) in Wheat:\nFungicidal treatments containing the compound of Formula I and the compound of Formula II, either individually or as a two way mixture, were assessed against yellow rust of wheat (PUCCST) in two separate field trials. In the first trial, fungicidal treatments were applied twice at B31-32 (early curative, 4% infection at application on L3) and B39 (16.3% infection at application on L3) growth stages of winter wheat (TRZAW, Fairplay variety) under naturally occurring infection with PUCCST. The treatments were part of an experimental trial designed as a randomized complete block with four replications and a plot of approximately 1×6 m. Treatments were applied at water volume of 200 L/ha, using a backpack plot sprayer (BKPCKENG, F110-015 Hardi (3) Flat fan nozzle) and pressurized at 200 kPa.\nIn the second trial, fungicidal treatments containing the compound of Formula I and the compound of Formula II, either individually or as a two way mixture, were applied twice at B32 (protectant, 0% infection on L3 at application) and B37 (early curative, 20% infection on L3 at application) growth stages of wheat (TRZAW, Torch variety) under naturally occurring infection with PUCCST. The treatment was part of an experimental trial designed as a randomized complete block with four replications and a plot of approximately 2×4 m. Treatments were applied at water volume of 200 L/ha, using a backpack precision plot sprayer (BKCKAIR, F110-03 Hypro (4) Flat fan nozzle) and pressurized at 210 kPa.\nas §2, with “4-7” for “5”, “yellow” for “brown”"}, "[3]": {"test_system": "Zymoseptoria tritici (SEPTTR)", "assay": "Field assessment of leaf blotch of wheat (SEPTTR), 3 field trials", "type": "in vivo, Zymoseptoria tritici on winter wheat (TRZAW)", "details": "relative AUDPC, average of 3 field trials, with Agnique BP-420", "from_the_text": "as §1\nField Assessment of Zymoseptoria tritici (SEPTTR) in Wheat:\nFungicidal treatments containing the compound of Formula I and the compound of Formula II, either individually or as a two way mixture, were assessed against leaf spot of wheat (SEPTTR) in three separate field trials. In the first trial, fungicidal treatments were applied at B37 (curative, 1.8% infection at application on L4) growth stage of winter wheat (TRZAW, Sy moisson variety) under naturally occurring infection with SEPTTR. The treatments were part of an experimental trial designed as a randomized complete block with four replications and a plot of approximately 2×4 m. Treatments were applied at water volume of 200 L/ha, using a backpack plot sprayer (BKPCKAIR, FLAT FAN nozzle) and pressurized at 250 kPa.\nIn the second trial, fungicidal treatments were applied twice at B32 (curative, 15% infection at application on L5) and B39 (16% infection at application on L4) growth stages of winter wheat (TRZAW, Riband variety) under naturally occurring infection with SEPTTR. The treatments were part of an experimental trial designed as a randomized complete block with four replications and a plot of approximately 1.5×2 m. Treatments were applied at water volume of 200 L/ha, using a backpack plot sprayer (BKPCKAIR, Flat fan nozzle) and pressurized at 180 kPa.\nIn the final trial, fungicidal treatments were applied twice at B32 (protective, 15% infection at application on L6) and B37 (12% infection at application on L5) growth stages of winter wheat (TRZAW, Smaragd variety) under naturally occurring infection with SEPTTR. […]\nas §2, with “at 7-9” for “at 5”, “of leaf spot” for “of brown rust”, “over all three” for “over both”, “trials. […]” for “trials. Statistical analysis was done according to ANOVA and Tukey's test (p=0.10).”"}},
  "data": [
    {"smiles": "N#Cc1ccc(Oc2ccc(C(F)(F)C(O)(Cn3nc[nH]c3=S)c3ccc(F)cc3F)nc2)cc1", "note": "(stereo not drawn) [Compound I, 4-((6-(2-(2,4-difluorophenyl)-1,1-difluoro-2-hydroxy-3-(5-thioxo-4,5-dihydro-1H-1,2,4-triazol-1-yl)propyl)pyridin-3-yl)oxy)benzonitrile]", "values": [
      {"measurement": "PUCCRT % Control", "setting": "[1]; 75 g ai/ha", "result": 79.7, "unit": "%"},
      {"measurement": "PUCCRT % Control", "setting": "[1]; 150 g ai/ha", "result": 89.0, "unit": "%"},
      {"measurement": "PUCCST % Control", "setting": "[2]; 75 g ai/ha", "result": 83.4, "unit": "%"},
      {"measurement": "PUCCST % Control", "setting": "[2]; 150 g ai/ha", "result": 87.7, "unit": "%"},
      {"measurement": "SEPTTR % Control", "setting": "[3]; 75 g ai/ha", "result": 50.3, "unit": "%"},
      {"measurement": "SEPTTR % Control", "setting": "[3]; 150 g ai/ha", "result": 73.8, "unit": "%"}
    ]},
    {"smiles": "COc1ccnc(C(=O)N[C@@H](C)C(=O)O[C@@H](C)C(c2ccc(F)cc2)c2ccc(F)cc2)c1OC(C)=O", "note": "[Compound II, (S)-1,1-bis(4-fluorophenyl)propan-2-yl (3-acetoxy-4-methoxypicolinoyl)-L-alaninate]", "values": [
      {"measurement": "PUCCRT % Control", "setting": "[1]; 20 g ai/ha", "result": 45.4, "unit": "%"},
      {"measurement": "PUCCRT % Control", "setting": "[1]; 40 g ai/ha", "result": 64.7, "unit": "%"},
      {"measurement": "PUCCST % Control", "setting": "[2]; 40 g ai/ha", "result": 50.6, "unit": "%"},
      {"measurement": "PUCCST % Control", "setting": "[2]; 60 g ai/ha", "result": 56.2, "unit": "%"},
      {"measurement": "SEPTTR % Control", "setting": "[3]; 20 g ai/ha", "result": 35.1, "unit": "%"},
      {"measurement": "SEPTTR % Control", "setting": "[3]; 40 g ai/ha", "result": 52.2, "unit": "%"}
    ]}
  ]
}
